Reference: PubChem BioAssay AID1963973 (Molecular Pharmacology Branch, DTP, NCI, 2024)

Tested on: 883617-216-R-J1-PDC tumor spheroids, viability
Test: Anticancer human tumor 883617-216-R-J1-PDC patient-derived bladder carcinoma cell line growth inhibition [PI3K]
Details: spheroids with HUVEC and MSC; for IC50: curve of first compound; for viability, T/C: stronger effect = lower value
In short: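 Tumor cells grown as multi-cell spheroids with HUVEC endothelial cells and MSC fibroblast-like stroma were treated with targeted agents combined with inavolisib, alpelisib, duvelisib or copanlisib. Doses fell in half-log steps from near clinical Cmax, else from 10 microM. Viability was measured.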

[1] = second compound 0.0316 µM, first compound 0.0316 µM
[2] = second compound 0.0316 µM, first compound 0.1 µM
[3] = second compound 0.0316 µM, first compound 0.316 µM
[4] = second compound 0.0316 µM, first compound 1 µM
[5] = second compound 0.0316 µM, first compound 3.16 µM
[6] = second compound 0.0316 µM, first compound 10 µM
[7] = second compound 0.1 µM, first compound 0.0316 µM
[8] = second compound 0.1 µM, first compound 0.1 µM
[9] = second compound 0.1 µM, first compound 0.316 µM
[10] = second compound 0.1 µM, first compound 1 µM
[11] = second compound 0.1 µM, first compound 3.16 µM
[12] = second compound 0.1 µM, first compound 10 µM
[13] = second compound 0.316 µM, first compound 0.0316 µM
[14] = second compound 0.316 µM, first compound 0.1 µM
[15] = second compound 0.316 µM, first compound 0.316 µM
[16] = second compound 0.316 µM, first compound 1 µM
[17] = second compound 0.316 µM, first compound 3.16 µM
[18] = second compound 0.316 µM, first compound 10 µM
[19] = second compound 1 µM, first compound 0.0316 µM
[20] = second compound 1 µM, first compound 0.1 µM
[21] = second compound 1 µM, first compound 0.316 µM
[22] = second compound 1 µM, first compound 1 µM
[23] = second compound 1 µM, first compound 3.16 µM
[24] = second compound 1 µM, first compound 10 µM
[25] = second compound 3.16 µM, first compound 0.0316 µM
[26] = second compound 3.16 µM, first compound 0.1 µM
[27] = second compound 3.16 µM, first compound 0.316 µM
[28] = second compound 3.16 µM, first compound 1 µM
[29] = second compound 3.16 µM, first compound 3.16 µM
[30] = second compound 3.16 µM, first compound 10 µM
[31] = second compound 10 µM, first compound 0.0316 µM
[32] = second compound 10 µM, first compound 0.1 µM
[33] = second compound 10 µM, first compound 0.316 µM
[34] = second compound 10 µM, first compound 1 µM
[35] = second compound 10 µM, first compound 3.16 µM
[36] = second compound 10 µM, first compound 10 µM
[37] = second compound 0.0316 µM, first compound 0.00316 µM
[38] = second compound 0.0316 µM, first compound 0.01 µM
[39] = second compound 0.1 µM, first compound 0.00316 µM
[40] = second compound 0.1 µM, first compound 0.01 µM
[41] = second compound 0.316 µM, first compound 0.00316 µM
[42] = second compound 0.316 µM, first compound 0.01 µM
[43] = second compound 1 µM, first compound 0.00316 µM
[44] = second compound 1 µM, first compound 0.01 µM
[45] = second compound 3.16 µM, first compound 0.00316 µM
[46] = second compound 3.16 µM, first compound 0.01 µM
[47] = second compound 10 µM, first compound 0.00316 µM
[48] = second compound 10 µM, first compound 0.01 µM
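Also: spheroids exposed to agents for 7 days before the viability read.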

## CC(C)NCC(C(=O)N1CCN(c2ncnc3c2C(C)CC3O)CC1)c1ccc(Cl)cc1 (stereo not drawn) + Cc1nc(NC(=O)N2CCCC2C(N)=O)sc1-c1ccnc(C(C)(C)C(F)(F)F)c1
Second compound 0.0316 µM
  IC50: 403 nM
Second compound 0.1 µM
  IC50: 213 nM
Second compound 0.316 µM
  IC50: < 31.6 nM
Second compound 1 µM
  IC50: < 31.6 nM
Second compound 3.16 µM
  IC50: < 31.6 nM
Second compound 10 µM
  IC50: < 31.6 nM
[1]
  viability, T/C: 77%
[2]
  viability, T/C: 67.7%
[3]
  viability, T/C: 57.6%
[4]
  viability, T/C: 27.9%
[5]
  viability, T/C: 13.8%
[6]
  viability, T/C: 8.01%
[7]
  viability, T/C: 72.8%
[8]
  viability, T/C: 60.1%
[9]
  viability, T/C: 45.5%
[10]
  viability, T/C: 26.7%
[11]
  viability, T/C: 16.2%
[12]
  viability, T/C: 6.45%
[13]
  viability, T/C: 37.7%
[14]
  viability, T/C: 41%
[15]
  viability, T/C: 36.6%
[16]
  viability, T/C: 22.6%
[17]
  viability, T/C: 10.9%
[18]
  viability, T/C: 4.92%
[19]
  viability, T/C: 30.4%
[20]
  viability, T/C: 29.9%
[21]
  viability, T/C: 24.4%
[22]
  viability, T/C: 15.2%
[23]
  viability, T/C: 8.01%
[24]
  viability, T/C: 4.96%
[25]
  viability, T/C: 17.9%
[26]
  viability, T/C: 10.5%
[27]
  viability, T/C: 10.3%
[28]
  viability, T/C: 9.2%
[29]
  viability, T/C: 8.98%
[30]
  viability, T/C: 3.73%
[31]
  viability, T/C: 7.03%
[32]
  viability, T/C: 5.88%
[33]
  viability, T/C: 5.22%
[34]
  viability, T/C: 5.21%
[35]
  viability, T/C: 3.1%
[36]
  viability, T/C: 2.33%

## CCN1CCN(Cc2ccc(Nc3ncc(F)c(-c4cc(F)c5nc(C)n(C(C)C)c5c4)n3)nc2)CC1 + Cc1nc(NC(=O)N2CCCC2C(N)=O)sc1-c1ccnc(C(C)(C)C(F)(F)F)c1
Second compound 0.0316 µM
  IC50: 226 nM
Second compound 0.1 µM
  IC50: 26.3 nM
Second compound 0.316 µM
  IC50: 4.15 nM
Second compound 1 µM
  IC50: < 3.16 nM
Second compound 3.16 µM
  IC50: < 3.16 nM
Second compound 10 µM
  IC50: < 3.16 nM
[37]
  viability, T/C: 75.7%
[38]
  viability, T/C: 64.7%
[1]
  viability, T/C: 64.2%
[2]
  viability, T/C: 53.8%
[3]
  viability, T/C: 49.9%
[4]
  viability, T/C: 39.6%
[39]
  viability, T/C: 59.7%
[40]
  viability, T/C: 56.3%
[7]
  viability, T/C: 46.4%
[8]
  viability, T/C: 44.4%
[9]
  viability, T/C: 44.3%
[10]
  viability, T/C: 36.3%
[41]
  viability, T/C: 53.3%
[42]
  viability, T/C: 39.7%
[13]
  viability, T/C: 37%
[14]
  viability, T/C: 31.4%
[15]
  viability, T/C: 26.6%
[16]
  viability, T/C: 28.5%
[43]
  viability, T/C: 29.1%
[44]
  viability, T/C: 25.5%
[19]
  viability, T/C: 24.1%
[20]
  viability, T/C: 17.1%
[21]
  viability, T/C: 21.4%
[22]
  viability, T/C: 19.3%
[45]
  viability, T/C: 12.3%
[46]
  viability, T/C: 13.7%
[25]
  viability, T/C: 11.8%
[26]
  viability, T/C: 10.5%
[27]
  viability, T/C: 14.6%
[28]
  viability, T/C: 10.5%
[47]
  viability, T/C: 7.72%
[48]
  viability, T/C: 5.77%
[31]
  viability, T/C: 5.3%
[32]
  viability, T/C: 4.95%
[33]
  viability, T/C: 5.02%
[34]
  viability, T/C: 5.41%

## Cn1ncc(Cl)c1-c1cc(C(=O)NC(CN)Cc2cccc(F)c2)sc1Cl (stereo not drawn) + Cc1nc(NC(=O)N2CCCC2C(N)=O)sc1-c1ccnc(C(C)(C)C(F)(F)F)c1
Second compound 0.0316 µM
  IC50: 249 nM
Second compound 0.1 µM
  IC50: 236 nM
Second compound 0.316 µM
  IC50: < 31.6 nM
Second compound 1 µM
  IC50: < 31.6 nM
Second compound 3.16 µM
  IC50: < 31.6 nM
Second compound 10 µM
  IC50: < 31.6 nM
[1]
  viability, T/C: 88.3%
[2]
  viability, T/C: 67.7%
[3]
  viability, T/C: 45.5%
[4]
  viability, T/C: 26.1%
[5]
  viability, T/C: 11.8%
[6]
  viability, T/C: 5.02%
[7]
  viability, T/C: 75%
[8]
  viability, T/C: 67.1%
[9]
  viability, T/C: 42.7%
[10]
  viability, T/C: 25%
[11]
  viability, T/C: 11.1%
[12]
  viability, T/C: 4.24%
[13]
  viability, T/C: 42.6%
[14]
  viability, T/C: 41.6%
[15]
  viability, T/C: 34.4%
[16]
  viability, T/C: 18.6%
[17]
  viability, T/C: 8.47%
[18]
  viability, T/C: 2.6%
[19]
  viability, T/C: 29.2%
[20]
  viability, T/C: 30.8%
[21]
  viability, T/C: 20.7%
[22]
  viability, T/C: 13.9%
[23]
  viability, T/C: 7.58%
[24]
  viability, T/C: 2.44%
[25]
  viability, T/C: 15.4%
[26]
  viability, T/C: 13.4%
[27]
  viability, T/C: 12.4%
[28]
  viability, T/C: 8.34%
[29]
  viability, T/C: 5.31%
[30]
  viability, T/C: 1.74%
[31]
  viability, T/C: 9.56%
[32]
  viability, T/C: 7.78%
[33]
  viability, T/C: 5.02%
[34]
  viability, T/C: 5.6%
[35]
  viability, T/C: 3.31%
[36]
  viability, T/C: 0.93%

## Cn1ncnc1[C@H]1c2n[nH]c(=O)c3cc(F)cc(c23)N[C@@H]1c1ccc(F)cc1 + Cc1nc(NC(=O)N2CCCC2C(N)=O)sc1-c1ccnc(C(C)(C)C(F)(F)F)c1
Second compound 0.0316 µM
  IC50: > 100 nM
Second compound 0.1 µM
  IC50: > 100 nM
Second compound 0.316 µM
  IC50: < 0.316 nM
Second compound 1 µM
  IC50: < 0.316 nM
Second compound 3.16 µM
  IC50: < 0.316 nM
Second compound 10 µM
  IC50: < 0.316 nM
Second compound 0.0316 µM, first compound 0.000316 µM
  viability, T/C: 88.1%
Second compound 0.0316 µM, first compound 0.001 µM
  viability, T/C: 74%
[37]
  viability, T/C: 68.2%
[38]
  viability, T/C: 68.5%
[1]
  viability, T/C: 64.8%
[2]
  viability, T/C: 52.9%
Second compound 0.1 µM, first compound 0.000316 µM
  viability, T/C: 66.9%
Second compound 0.1 µM, first compound 0.001 µM
  viability, T/C: 67.4%
[39]
  viability, T/C: 65.7%
[40]
  viability, T/C: 52.4%
[7]
  viability, T/C: 54.9%
[8]
  viability, T/C: 52%
Second compound 0.316 µM, first compound 0.000316 µM
  viability, T/C: 43.5%
Second compound 0.316 µM, first compound 0.001 µM
  viability, T/C: 47.3%
[41]
  viability, T/C: 49.5%
[42]
  viability, T/C: 45.5%
[13]
  viability, T/C: 35.4%
[14]
  viability, T/C: 34.9%
Second compound 1 µM, first compound 0.000316 µM
  viability, T/C: 27.5%
Second compound 1 µM, first compound 0.001 µM
  viability, T/C: 31.6%
[43]
  viability, T/C: 23.1%
[44]
  viability, T/C: 26.2%
[19]
  viability, T/C: 27.2%
[20]
  viability, T/C: 21.3%
Second compound 3.16 µM, first compound 0.000316 µM
  viability, T/C: 16%
Second compound 3.16 µM, first compound 0.001 µM
  viability, T/C: 16.1%
[45]
  viability, T/C: 12%
[46]
  viability, T/C: 13%
[25]
  viability, T/C: 14.1%
[26]
  viability, T/C: 12%
Second compound 10 µM, first compound 0.000316 µM
  viability, T/C: 7.59%
Second compound 10 µM, first compound 0.001 µM
  viability, T/C: 8.2%
[47]
  viability, T/C: 6.62%
[48]
  viability, T/C: 6.95%
[31]
  viability, T/C: 7.18%
[32]
  viability, T/C: 5.36%
